Results: article PMC4688987, “Characterization of Toxoplasma gondii glyoxalase 1 and evaluation of inhibitory effects of curcumin on the enzyme and parasite cultures” (Parasites & Vectors, 2015)

Target: T1, rTgGlo1 (recombinant Toxoplasma gondii glyoxalase 1) (Toxoplasma gondii, UniProt A0A7J6JV59)
T1 construct: gene TGRH88_062270; full-length ORF (1008 nt, printed 336 residues) in pRSETb, His-tagged, E. coli BL21(DE3)pLysS; S-hexylglutathione-agarose then Ni-NTA; two glyoxalase domains 20-167 and 181-325
T1 sequence (A0A7J6JV59 1-336): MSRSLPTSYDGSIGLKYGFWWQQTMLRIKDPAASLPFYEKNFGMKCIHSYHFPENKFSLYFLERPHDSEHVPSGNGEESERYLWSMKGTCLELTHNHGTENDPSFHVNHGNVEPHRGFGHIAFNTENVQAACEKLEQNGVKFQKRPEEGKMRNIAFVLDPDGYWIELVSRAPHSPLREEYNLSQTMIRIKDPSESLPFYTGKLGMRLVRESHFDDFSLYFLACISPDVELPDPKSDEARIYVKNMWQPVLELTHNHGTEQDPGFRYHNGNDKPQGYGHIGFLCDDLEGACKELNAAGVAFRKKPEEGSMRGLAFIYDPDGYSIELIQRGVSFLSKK
Test: spectrophotometric at […] nm, Lineweaver-Burk
Format: biochemical

SMILES: COc1cc(/C=C/C(=O)CC(=O)/C=C/c2ccc(O)c(OC)c2)ccc1O [curcumin]
- Ki: 12.9 ± 0.5 µM
